Source: US8946240B2, “4-amino-3-(imidazolyl)-pyrazolo[3,4-D]pyrimidines” (ChemoCentryx, Inc., priority 2008, dated 2015)

target: T1, CCR1 (Homo sapiens, UniProt P32246); assay: chemotaxis assay (THP-1 cells or monocytes migrating to CCR1 chemokine ligands); assay type: cell-based; conditions: chemotaxis assay; compared with drawing 40
T1 construct: host or cells: THP-1 cells or freshly isolated monocytes
T1 sequence (P32246 1-355): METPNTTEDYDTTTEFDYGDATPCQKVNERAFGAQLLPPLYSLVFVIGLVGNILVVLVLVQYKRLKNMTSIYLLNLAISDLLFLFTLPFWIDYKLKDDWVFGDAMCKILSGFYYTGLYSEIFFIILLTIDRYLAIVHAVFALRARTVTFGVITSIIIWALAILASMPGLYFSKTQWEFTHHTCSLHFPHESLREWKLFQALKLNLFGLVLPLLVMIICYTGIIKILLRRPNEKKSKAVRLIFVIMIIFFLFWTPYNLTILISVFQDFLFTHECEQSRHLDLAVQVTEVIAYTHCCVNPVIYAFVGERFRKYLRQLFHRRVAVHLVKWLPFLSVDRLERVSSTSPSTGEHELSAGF
Description: THP-1 cells were obtained from ATCC (TIB-202) and cultured as a suspension in RPMI-1640 medium supplemented with 2 mM L-glutamine, 1.5 g/L sodium bicarbonate, 4.5 g/L glucose, 10 mM HEPES, 1 mM sodium pyruvate, 0.05% 2-mercaptoethanol and 10% FBS. Cells were grown under 5% CO2/95% air, 100% humidity at 37° C. and subcultured twice weekly at 1:5 (cells were cultured at a density range of 2×10^5 to 2×10^6 cells/mL) and harvested at 1×10^6 cells/mL. THP-1 cells express CCR1 and can be used in CCR1 binding and functional assays.
One of the primary functions of chemokines is their ability to mediate the migration of chemokine receptor-expressing cells, such as white blood cells. To confirm that a compound of interest inhibited not only CCR1 specific binding and signaling (at least as determined by calcium mobilization assays), but also CCR1 mediated migration, a chemotaxis assay was employed. THP-1 myelomonocytic leukemia cells, which resemble monocytes, as wells as freshly isolated monocytes, were used as targets for chemoattraction by CCR1 chemokine ligands (i.e., MIP-1α, CCL15/leukotactin). Cells were place in the top compartment of a microwell migration chamber, 5 μm pore polycarbonate, polyvinylpyrrolidone-coated filters in 96-well chemotaxis chambers (Neuroprobe; Gaithersburg, Md.) using chemotaxis buffer (Hank's balanced salt solution (HBSS) and 1% FBS. CCR1 chemokine ligands (i.e., MIP-1α, CCL15/Leukotactin; R&D Systems; Minneapolis, Minn.) are used to evaluate compound mediated inhibition of CCR1 mediated migration. Other chemokines (i.e., SDF-1α; R&D Systems; Minneapolis, Minn.) are used as specificity controls. The lower chamber was loaded with 29 μl of chemokine (i.e., 0.1 nM CCL15/Leukotactin) and varying amounts of compound; the top chamber contained 100,000 THP-1 or monocyte cells in 20 μl. […] To ascertain a compound of interest's affinity for CCR1 as well as to confirm its ability to inhibit CCR1 mediated cell migration, inhibitory activity was titered over a 1×10^−10 to 1×10^−4 M range of compound concentrations in this chemotaxis assay. In this assay, the amount of compound was varied; while cell number and chemokine agonist concentrations were held constant. After the chemotaxis chambers were incubated 1-2 hours at 37° C., the responding cells in the lower chamber were quantified by labeling with the CyQuant assay (Molecular Probes), a fluorescent dye method that measures nucleic acid content, and by measuring with a Spectrafluor Plus (Tecan). The computer program Prism from GraphPad, Inc. (San Diego, Calif.) was used to calculate IC50 values. IC50 values are those compound concentrations required to inhibit the number of cells responding to a CCR1 agonist by 50%.

IC50 relative to comparator compound | Structure (SMILES)
an order of magnitude lower | COc1cc(N2CCN(C(=O)Cn3nc(-c4ncc[nH]4)c4c(N)ncnc43)[C@@H](C)C2)c(F)cc1Cl [drawing 39]

same assay, conditions: versus imidazole-substituted pyrido[4,3-b]pyrazoles of related U.S. application Ser. No. 12/124,894

activity in direct comparisons relative to the related compounds tested | Structure (SMILES)
at least an order of magnitude better | COc1cc(N2CCN(C(=O)Cn3nc(-c4ncc[nH]4)c4c(N)ncnc43)CC2)ccc1Cl [Compound 1.001]
at least an order of magnitude better | C[C@H]1CN(c2ccc(Cl)cc2F)CCN1C(=O)Cn1nc(-c2ncc[nH]2)c2c(N)ncnc21 [Compound 1.003]
at least an order of magnitude better | COc1cc(N2CCN(C(=O)Cn3nc(-c4ncc[nH]4)c4c(N)ncnc43)[C@@H](C)C2)ccc1Cl [Compound 1.004]
at least an order of magnitude better | COc1cc(N2CCN(C(=O)Cn3nc(-c4ncc[nH]4)c4c(N)ncnc43)[C@@H](C)C2)c(F)cc1Cl [Compound 1.006]
at least an order of magnitude better | CCOc1cc(N2CCN(C(=O)Cn3nc(-c4ncc[nH]4)c4c(N)ncnc43)[C@@H](C)C2)ccc1Cl [Compound 1.011]

Structure (SMILES) | activity in direct comparisons relative to the related compounds tested
CCOc1cc(N2CCN(C(=O)Cn3nc(-c4ncc[nH]4)c4c(N)ncnc43)CC2)ccc1Cl [Compound 1.007] | at least an order of magnitude better
Nc1ncnc2c1c(-c1ncc[nH]1)nn2CC(=O)N1CCN(c2ccc(Cl)c(OC(F)(F)F)c2)CC1 [Compound 1.010] | at least an order of magnitude better
